Experimental data reported in PubChem BioAssay AID330 (DTP/NCI, 2004).
Several values for one entry are separate records, joined by “and”; a condition that tells them apart may be missing. Equal values may be shown once. Toxic doses and inconclusive results are not listed. Rule for the calls: active = survival T/C of 150% or more; inactive = T/C below 125% in these data.

System: P388 leukemia ip, CD2F1 mice, survival T/C
Assay: NCI In Vivo Anticancer Drug Screen. Data for tumor model P388 Leukemia (intraperitoneal) in CD2F1 (CDF1) mice
Conditions: endpoint: median survival time, higher = longer survival
Procedure, shortened: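 Mice carrying the transplanted tumor received test compound or vehicle. Survival was recorded in each group, and the value is the treated-group measurement divided by that of the vehicle-treated control group.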

[1] = dose: 50.0 mg/kg/injection, schedule: Q01DX009 (ip), vehicle: Klucel (hydroxypropylcellulose) (HPC)
[2] = dose: 100.0 mg/kg/injection, schedule: Q01DX009 (ip), vehicle: Klucel (hydroxypropylcellulose) (HPC)
[3] = dose: 200.0 mg/kg/injection, schedule: Q01DX009 (ip), vehicle: Klucel (hydroxypropylcellulose) (HPC)
[4] = dose: 50.0 mg/kg/injection, schedule: Q01DX005 (ip), vehicle: saline with Tween-80
[5] = dose: 100.0 mg/kg/injection, schedule: Q01DX005 (ip), vehicle: saline with Tween-80
[6] = dose: 200.0 mg/kg/injection, schedule: Q01DX005 (ip), vehicle: saline with Tween-80
[7] = dose: 50.0 mg/kg/injection, schedule: Q01DX005 (ip), vehicle: Klucel (hydroxypropylcellulose) (HPC)
[8] = dose: 100.0 mg/kg/injection, schedule: Q01DX005 (ip), vehicle: Klucel (hydroxypropylcellulose) (HPC)
[9] = dose: 200.0 mg/kg/injection, schedule: Q01DX005 (ip), vehicle: Klucel (hydroxypropylcellulose) (HPC)
[10] = dose: 25.0 mg/kg/injection, schedule: Q01DX005 (ip), vehicle: saline
[11] = dose: 50.0 mg/kg/injection, schedule: Q01DX005 (ip), vehicle: saline

Measured: T/C

Oc1c[nH]c(=S)s1
inactive: dose: 12.5 mg/kg/injection, schedule: Q01DX009 (ip), vehicle: other 112 % of control | dose: 25.0 mg/kg/injection, schedule: Q01DX009 (ip), vehicle: other 106 % of control | dose: 50.0 mg/kg/injection, schedule: Q01DX009 (ip), vehicle: other 111 % of control | dose: 100.0 mg/kg/injection, schedule: Q01DX009 (ip), vehicle: other 102 % of control | dose: 200.0 mg/kg/injection, schedule: Q01DX009 (ip), vehicle: other 117 % of control

O=[N+]([O-])c1ccc([S][Sn]([c]2ccccc2)([c]2ccccc2)[c]2ccccc2)cc1
inactive: dose: 50.0 mg/kg/injection, schedule: Q04DX003 (ip), vehicle: saline 101 % of control and 92 % of control | dose: 100.0 mg/kg/injection, schedule: Q04DX003 (ip), vehicle: saline 98 % of control and 104 % of control and 109 % of control | dose: 200.0 mg/kg/injection, schedule: Q04DX003 (ip), vehicle: saline 108 % of control and 109 % of control and 110 % of control | dose: 400.0 mg/kg/injection, schedule: Q04DX003 (ip), vehicle: saline 101 % of control and 102 % of control and 120 % of control

FC(F)(F)c1cccc(C(OCC2CO2)(C(F)(F)F)C(F)(F)F)c1 (stereo not given)
inactive: [1] 99 % of control | [2] 96 % of control | [3] 102 % of control

CC(=O)C(=O)c1ccc(O)cc1
inactive: dose: 10.0 mg/kg/injection, schedule: Q01DX009 (ip), vehicle: saline with Tween-80 96 % of control | dose: 20.0 mg/kg/injection, schedule: Q01DX009 (ip), vehicle: saline with Tween-80 94 % of control | dose: 40.0 mg/kg/injection, schedule: Q01DX009 (ip), vehicle: saline with Tween-80 99 % of control

Cc1nc2cc(C)[nH]c(=O)n2n1
inactive: [4] 105 % of control | [5] 107 % of control | [6] 104 % of control

COc1ccc(-c2coc3cc(O)ccc3c2=O)c(O)c1OC
inactive: dose: 100.0 mg/kg/injection, schedule: Q04DX003 (ip), vehicle: Klucel (hydroxypropylcellulose) (HPC) 97 % of control | dose: 200.0 mg/kg/injection, schedule: Q04DX003 (ip), vehicle: Klucel (hydroxypropylcellulose) (HPC) 101 % of control | dose: 400.0 mg/kg/injection, schedule: Q04DX003 (ip), vehicle: Klucel (hydroxypropylcellulose) (HPC) 99 % of control

Cc1c2cc[n+](CCCCCCCC[n+]3ccc4c(C)c5[nH]c6ccccc6c5cc4c3C)c(C)c2cc2c1[nH]c1ccccc12
inactive: dose: 0.78 mg/kg/injection, schedule: Q04DX003 (ip), vehicle: distilled water + Tween-80 106 % of control | dose: 1.56 mg/kg/injection, schedule: Q04DX003 (ip), vehicle: distilled water + Tween-80 106 % of control | dose: 3.13 mg/kg/injection, schedule: Q04DX003 (ip), vehicle: distilled water + Tween-80 109 % of control | dose: 6.25 mg/kg/injection, schedule: Q04DX003 (ip), vehicle: distilled water + Tween-80 103 % of control and 113 % of control | dose: 12.5 mg/kg/injection, schedule: Q04DX003 (ip), vehicle: distilled water + Tween-80 105 % of control and 116 % of control and 122 % of control | dose: 25.0 mg/kg/injection, schedule: Q04DX003 (ip), vehicle: distilled water + Tween-80 116 % of control and 121 % of control and 123 % of control | dose: 100.0 mg/kg/injection, schedule: Q04DX003 (ip), vehicle: distilled water + Tween-80 121 % of control

Cc1ccccc1-c1nc2c3ccccc3c3ccccc3c2[nH]1
inactive: [7] 103 % of control | [8] 96 % of control | [9] 100 % of control

Nc1cc2ccccc2cc1NS(=O)(=O)N1CCCCC1
inactive: dose: 50.0 mg/kg/injection, schedule: Q01DX009 (ip), vehicle: acetone 94 % of control | dose: 100.0 mg/kg/injection, schedule: Q01DX009 (ip), vehicle: acetone 101 % of control | dose: 200.0 mg/kg/injection, schedule: Q01DX009 (ip), vehicle: acetone 98 % of control

CN(C)C1=NC(NCc2ccccc2)(N(C)C)OC(N(C)C)=N1 (stereo not given)
inactive: [10] 107 % of control | [11] 96 % of control

CCCCCCC(=O)/C=C/c1cc(Cl)cc(Cl)c1O
inactive: [1] 105 % of control | [2] 91 % of control | [3] 101 % of control

CCN(CC)CCNc1cccc2c(C)cc(=O)[nH]c12
inactive: [4] 103 % of control | [5] 101 % of control

O=C1C=C2CCCCCCCCC(C1)C2 (stereo not given)
inactive: [7] 99 % of control | [8] 96 % of control | [9] 89 % of control

Cc1ccc(S(=O)(=O)NC(CCC(N)=O)C(=O)O)cc1 (stereo not given)
inactive: [4] 100 % of control | [5] 103 % of control | [6] 91 % of control

CC1CN1P(=O)(c1ccccc1)N1CC1C (stereo not given)
inactive: dose: 12.5 mg/kg/injection, schedule: Q01DX005 (ip), vehicle: saline with Tween-80 108 % of control | dose: 12.5 mg/kg/injection, schedule: Q01DX005 (ip), vehicle: saline 100 % of control | dose: 25.0 mg/kg/injection, schedule: Q01DX005 (ip), vehicle: saline with Tween-80 100 % of control | [10] 95 % of control | [4] 104 % of control and 97 % of control | [11] 96 % of control | dose: 50.0 mg/kg/injection, schedule: Q01DX005 (ip), vehicle: suspension in saline 105 % of control | dose: 100.0 mg/kg/injection, schedule: Q01DX005 (ip), vehicle: suspension in saline 115 % of control

O=C(COc1ccc(Cl)cc1Cl)N1CCNC1=O
inactive: [1] 103 % of control | [2] 98 % of control | [3] 97 % of control

Cc1ccccc1NC(=O)Nc1sc(=S)c2c(c1C#N)CCCC2
inactive: [4] 94 % of control | [5] 103 % of control | [6] 103 % of control

O=c1oc2nc(-c3ccccc3)[nH]c(=O)c2c(O)c1-c1ccccc1
inactive: dose: 60.0 mg/kg/injection, schedule: Q01DX005 (ip), vehicle: Klucel (hydroxypropylcellulose) (HPC) 96 % of control | dose: 120.0 mg/kg/injection, schedule: Q01DX005 (ip), vehicle: Klucel (hydroxypropylcellulose) (HPC) 96 % of control

O=c1oc2ccccc2c2c1C(c1ccc3c(c1)OCO3)C=C(c1ccc3c(c1)OCO3)O2 (stereo not given)
inactive: dose: 25.0 mg/kg/injection, schedule: Q01DX009 (ip), vehicle: water 94 % of control | dose: 50.0 mg/kg/injection, schedule: Q01DX009 (ip), vehicle: water 94 % of control | dose: 100.0 mg/kg/injection, schedule: Q01DX009 (ip), vehicle: water 94 % of control | dose: 200.0 mg/kg/injection, schedule: Q01DX009 (ip), vehicle: water 92 % of control

C=C1C(C2=NCCN2O)OC2OC(C)(C)OC12 (stereo not given)
inactive: dose: 100.0 mg/kg/injection, schedule: Q04DX002 (ip), vehicle: Klucel (hydroxypropylcellulose) (HPC) 98 % of control | dose: 200.0 mg/kg/injection, schedule: Q04DX002 (ip), vehicle: Klucel (hydroxypropylcellulose) (HPC) 103 % of control | dose: 400.0 mg/kg/injection, schedule: Q04DX002 (ip), vehicle: Klucel (hydroxypropylcellulose) (HPC) 97 % of control

CN(C)c1ccc(C(=O)C2(Cl)CCCCC2)cc1
inactive: dose: 100.0 mg/kg/injection, schedule: Q01DX001 (ip), vehicle: Klucel (hydroxypropylcellulose) (HPC) 97 % of control | dose: 200.0 mg/kg/injection, schedule: Q01DX001 (ip), vehicle: Klucel (hydroxypropylcellulose) (HPC) 100 % of control | dose: 400.0 mg/kg/injection, schedule: Q01DX001 (ip), vehicle: Klucel (hydroxypropylcellulose) (HPC) 96 % of control

COC1OC(CO)C(O)C(O)C1N1C(=O)c2ccccc2C1=O (stereo not given)
inactive: [7] 100 % of control | [11] 97 % of control | [8] 98 % of control | dose: 100.0 mg/kg/injection, schedule: Q01DX005 (ip), vehicle: saline 97 % of control | [9] 97 % of control | dose: 200.0 mg/kg/injection, schedule: Q01DX005 (ip), vehicle: saline 101 % of control

C(=N\NC1=NCCN1)/c1ccc(-c2cn3cc(/C=N/NC4=NCCN4)ccc3n2)cc1
inactive: dose: 60.0 mg/kg/injection, schedule: Q01DX005 (ip), vehicle: saline with Tween-80 112 % of control
